Results: ChEMBL document CHEMBL4052740, “Potent antiobesity effect of a short-length peptide YY-analogue continuously administered in mice” (Bioorg Med Chem Lett, 2017)
Activity calls are given as the source filed them. The rule behind the calls is not given here. Where a SMILES comes first, the peptide text is derived from it. [ ]: non-standard residue; d: D form. The star is where a group is joined. dHyp = O=C(O)[C@H]1C[C@H](O)CN1; Cha = N[C@@H](CC1CCCCC1)C(=O)O; Aib = CC(C)(N)C(=O)O; Bz = O=C(c1ccccc1)*

What was measured:
Mus musculus [1] = test: Anorectic activity in C57BL/6J mouse assessed as inhibition of food intake at 0.03 mg/kg/day, sc administered by infusion as continuous dosing for 3 days relative to 1 mg/kg/day PYY (3 to 36 residues); assay type: functional
Mus musculus [2] = test: Anorectic activity in lean C57BL/6J mouse assessed as inhibition of cumulative food intake at 3 to 300 nmol/kg through bolus subcutaneous administration measured 24 hrs post dose; assay type: functional, organism-based
Mus musculus [3] = test: Antidiabetic activity in type 2 diabetes obese mouse assessed as reduction in glycated hemoglobin level at 0.03 to 0.3 mg/kg/day administered via subcutaneous osmotic pumps by continuous dosing for 11 days; assay type: functional, organism-based
Mus musculus [4] = test: Antidiabetic activity in type 2 diabetes obese mouse assessed as reduction in plasma glucose level at 0.03 to 0.3 mg/kg/day administered via subcutaneous osmotic pumps by continuous dosing for 11 days; assay type: functional, organism-based
Mus musculus [5] = test: Antiobesity activity in obese C57BL/6J mouse assessed as body weight loss at 0.3 mg/kg/day administered via subcutaneous osmotic pumps by continuous dosing measured on day 11 relative to control; assay type: functional
Mus musculus [6] = test: Antiobesity activity in obese C57BL/6J mouse assessed as inhibition of cumulative food intake at 0.03 to 0.3 mg/kg/day administered via subcutaneous osmotic pumps by continuous dosing for 11 days; assay type: functional, organism-based
Mus musculus [7] = test: Anorectic activity in lean C57BL/6J mouse assessed as inhibition of cumulative food intake at 3 to 300 nmol/kg through bolus subcutaneous administration measured 3 to 24 hrs post dose; assay type: functional, organism-based
Mus musculus [8] = test: Mean absorption time in C57BL/6J mouse at 1 mg/kg, sc by LC/MS/MS analysis; assay type: ADME, organism-based; details: in vivo
[9] = Bioavailability in C57BL/6J mouse at 1 mg/kg, sc by LC/MS/MS analysis; assay type: ADME, organism-based; details: in vivo
[10] = AUC (0 to 24 hrs) in C57BL/6J mouse at 1 mg/kg, sc by LC/MS/MS analysis; assay type: ADME, organism-based; design: dose 1 mg/kg, time < 24 hr, route subcutaneous; details: in vivo
[11] = Mean residence time in C57BL/6J mouse at 1 mg/kg, sc by LC/MS/MS analysis; assay type: ADME, organism-based; details: in vivo
[12] = Cmax in C57BL/6J mouse at 1 mg/kg, sc by LC/MS/MS analysis; assay type: ADME, organism-based; design: dose 1 mg/kg, route subcutaneous; details: in vivo
[13] = Tmax in C57BL/6J mouse at 1 mg/kg, sc by LC/MS/MS analysis; assay type: ADME, organism-based; details: in vivo
[14] = Total clearance in C57BL/6J mouse at 1 mg/kg, iv by LC/MS/MS analysis; assay type: ADME, organism-based; details: in vivo
[15] = Volume of distribution at steady state in C57BL/6J mouse at 1 mg/kg, iv by LC/MS/MS analysis; assay type: ADME, organism-based; details: in vivo, read-out: Vdss
[16] = Mean residence time in C57BL/6J mouse at 1 mg/kg, iv by LC/MS/MS analysis; assay type: ADME, organism-based; details: in vivo
[17] = Plasma concentration in C57BL/6J mouse at 1 mg/kg, iv after 5 mins by LC/MS/MS analysis; assay type: ADME, organism-based
[18] = AUC (0 to 24 hrs) in C57BL/6J mouse at 1 mg/kg, iv by LC/MS/MS analysis; assay type: ADME, organism-based; design: time < 24 hr, dose 1 mg/kg, route intravenous; details: in vivo
[19] = target: T1, Neuropeptide Y receptor type 2 (Homo sapiens, UniProt P49146); test: Displacement of [125I]peptide YY from human Y2 receptor expressed in CHO cell membranes after 60 mins by TopCount scintillation counting analysis
T1 sequence (P49146 whole entry): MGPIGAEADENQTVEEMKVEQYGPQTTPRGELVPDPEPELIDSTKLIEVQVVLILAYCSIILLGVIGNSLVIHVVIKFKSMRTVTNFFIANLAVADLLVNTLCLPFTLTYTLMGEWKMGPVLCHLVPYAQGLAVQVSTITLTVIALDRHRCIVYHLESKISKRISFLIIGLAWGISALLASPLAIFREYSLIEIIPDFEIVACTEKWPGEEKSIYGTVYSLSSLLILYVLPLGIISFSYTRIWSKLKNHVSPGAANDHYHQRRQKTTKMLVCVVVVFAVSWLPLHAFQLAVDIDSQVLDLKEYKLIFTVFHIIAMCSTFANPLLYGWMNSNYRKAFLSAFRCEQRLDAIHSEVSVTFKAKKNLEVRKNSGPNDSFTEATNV

[20] = target: T1, Neuropeptide Y receptor type 2; test: Agonist activity at human Y2 receptor expressed in CHO cell membranes after 120 mins by [35S]GTPgammaS binding assay; assay type: functional
Mus musculus [21] = test: Anorectic activity in C57BL/6J mouse assessed as inhibition of food intake at 0.3 mg/kg/day, sc administered by infusion as continuous dosing for 3 days relative to 1 mg/kg/day PYY (3 to 36 residues); assay type: functional
Mus musculus [22] = test: Anorectic activity in C57BL/6J mouse assessed as inhibition of food intake at 0.1 mg/kg/day, sc administered by infusion as continuous dosing for 3 days relative to 1 mg/kg/day PYY (3 to 36 residues); assay type: functional
Mus musculus [23] = test: Anorectic activity in C57BL/6J mouse assessed as inhibition of food intake at 1 mg/kg/day, sc administered by infusion as continuous dosing for 3 days relative to 1 mg/kg/day PYY (3 to 36 residues); assay type: functional; details: 72 h

Row | MAT (Mus musculus [8]) [h] | bioavailability [9] [%] | IC50 [19] [nM] | EC50 [20] [nM] | Structure (SMILES) | inhibition (INH) (Mus musculus [22]) [%] | inhibition in vivo at 1 mg/kg/day (Mus musculus [23]) [%] | further results
1 | 0.1 | 66.6 | 0.92 | 0.2 | CC(=O)N[C@@H](CO)C(=O)N1CCC[C@@H]1C(=O)N[C@@H](CCCNC(=N)N)C(=O)N[C@@H](Cc1ccncc1)C(=O)N[C@@H](CC1CCCCC1)C(=O)NC(C)(C)C(=O)N[C@@H](CC(N)=O)C(=O)N[C@@H](CCCCN)C(=O)NC(C)(C)C(=O)N[C@H](C(=O)N[C@@H](CCCNC(=N)N)C(=O)N[C@@H](CCC(N)=O)C(=O)N[C@@H](CCCNC(=N)N)C(=O)N[C@@H](CC1CCCCC1)C(N)=O)[C@@H](C)O | 80 |  | inhibition (INH) (Mus musculus [1]): 38%; Activity (Mus musculus [2]): Active; Activity (Mus musculus [3]): Active; Activity (Mus musculus [4]): Active; Activity (Mus musculus [5]): 23%; inhibition (Mus musculus [6]): Active; inhibition (Mus musculus [7]): Active; AUC(0-t) at 24 h [10]: 0.154 µM·h; MRT [11]: 26.4 min; Cmax [12]: 283 nM; Tmax [13]: 10.2 min; clearance [14]: 39.9 mL/min/kg; Vd [15]: 0.809 L/kg; MRT [16]: 20.4 min; concentration at 5 min [17]: 1060 nM; AUC(0-t) at 24 h [18]: 0.231 µM·h; inhibition (INH) (Mus musculus [21]): 112%
2 |  |  | 0.55 | 0.2 | CC(=O)N[C@@H](CO)C(=O)N1CCC[C@@H]1C(=O)N[C@@H](CCCNC(=N)N)C(=O)N[C@@H](Cc1cnc[nH]1)C(=O)N[C@@H](CC1CCCCC1)C(=O)N[C@@H](CC1CCCCC1)C(=O)N[C@@H](CC(N)=O)C(=O)N[C@@H](CCCCN)C(=O)NC(C)(C)C(=O)N[C@H](C(=O)N[C@@H](CCCNC(=N)N)C(=O)N[C@@H](CCC(N)=O)C(=O)N[C@@H](CCCNC(=N)N)C(=O)N[C@@H](CC1CCCCC1)C(N)=O)[C@@H](C)O |  | 79 | 
3 | 0.14 | 18.6 | 0.7 | 0.2 | CC(=O)N[C@@H](CO)C(=O)N1C[C@@H](O)C[C@@H]1C(=O)N[C@@H](CCCNC(=N)N)C(=O)N[C@@H](Cc1cnc[nH]1)C(=O)N[C@@H](CC1CCCCC1)C(=O)N[C@@H](CC1CCCCC1)C(=O)N[C@@H](CC(N)=O)C(=O)N[C@@H](CC(C)C)C(=O)NC(C)(C)C(=O)N[C@H](C(=O)N[C@@H](CCCNC(=N)N)C(=O)N[C@@H](CCC(N)=O)C(=O)N[C@@H](CCCNC(=N)N)C(=O)N[C@@H](CC1CCCCC1)C(N)=O)[C@@H](C)O (Ac-S[dHyp]RH[Cha][Cha]NL[Aib]TRQR[Cha]-NH2) | 18 |  | 
4 |  |  | 0.6 | 0.16 | CC(=O)N[C@@H](CO)C(=O)N1CCC[C@@H]1C(=O)N[C@@H](CCCNC(=N)N)C(=O)N[C@@H](Cc1cnc[nH]1)C(=O)N[C@@H](CC1CCCCC1)C(=O)N[C@@H](CC1CCCCC1)C(=O)N[C@@H](CC(N)=O)C(=O)N[C@@H](CCCNC(=N)N)C(=O)NC(C)(C)C(=O)N[C@H](C(=O)N[C@@H](CCCNC(=N)N)C(=O)N[C@@H](CCC(N)=O)C(=O)N[C@@H](CCCNC(=N)N)C(=O)N[C@@H](CC1CCCCC1)C(N)=O)[C@@H](C)O |  | 59 | 

Row | Structure (SMILES) | MAT (Mus musculus [8]) [h] | bioavailability [9] [%] | IC50 [19] [nM] | EC50 [20] [nM] | inhibition (INH) (Mus musculus [22]) [%] | inhibition in vivo at 1 mg/kg/day (Mus musculus [23]) [%] | further results
5 | CC(C)C[C@H](NC(=O)[C@H](CC(N)=O)NC(=O)[C@H](CC1CCCCC1)NC(=O)[C@H](CC1CCCCC1)NC(=O)[C@H](Cc1cnc[nH]1)NC(=O)[C@H](CCCNC(=N)N)NC(=O)c1ccccc1)C(=O)NC(C)(C)C(=O)N[C@H](C(=O)N[C@@H](CCCNC(=N)N)C(=O)N[C@@H](CCC(N)=O)C(=O)N[C@@H](CCCNC(=N)N)C(=O)N[C@@H](CC1CCCCC1)C(N)=O)[C@@H](C)O (Bz-RH[Cha][Cha]NL[Aib]TRQR[Cha]-NH2) | 2.72 | 5.9 | 7.4 | 2 |  |  | 
